Data reported in the supplement of paper PMC10949913.

Tests used:
Assay in all cases: area under concentration-response curve (viability) (AUC (a.u.)); higher = less active
Details in all cases: 48 h
CU-ACC1 = system: CU-ACC1
Procedure, shortened: (§1)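 After 48 h of treatment with 23 nL of each library compound at 11 concentrations, three adrenocortical carcinoma cell lines in 1,536-well plates (500–1,000 cells/well, 5 µL medium) were given CellTiter-Glo for 15 minutes at room temperature. Luminescence was then read and normalised per plate to vehicle and empty-well controls. AC50 and area under the curve were drawn from fitted concentration-response curves of inhibitory or non-responding classes only.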

CU-ACC2 = system: CU-ACC2
Procedure, shortened: as §1

NCI-H295R = system: NCI-H295R
Procedure, shortened: as §1

| Compound | area under concentration-response curve (CU-ACC1) | area under concentration-response curve (CU-ACC2) | area under concentration-response curve (NCI-H295R) |
| --- | --- | --- | --- |
| C=C[C@H]1CN2CCC1C[C@@H]2[C@@H](O)c1ccnc2ccccc12 (some centres not stated) | 455 | 522 | 486 |
| C[C@@H]1CC(=O)Nc2cccc(-c3ccc4c(c3)c(-c3cnn(C)c3)nn4C)c2N1 | 517 | 602 | 550 |
| CC(=O)[C@H]1CC[C@H]2[C@@H]3C/C=C4/C[C@@H](O)CC[C@]4(C)[C@H]3CC[C@]12C | 517 | 627 | 530 |
| CCCCNc1cc(C(=O)O)cc([S+](N)(=O)[O-])c1Oc1ccccc1 | 505 | 596 | 553 |
| OC[C@H]1O[C@@H](OC2=CC3=C(C=C2)C(=O)\C(=C/O3)C4=CC=C(O)C=C4)[C@H](O)[C@@H](O)[C@@H]1O | 551 | 591 | 576 |
| N#Cc1cccc(-c2c[nH]c3ncnc(N4CCOCC4)c23)c1 | 508 | 595 | 553 |
| Cn1cc(-c2ccc(-c3cncc(Cl)c3N3CCC4(CCNC4=O)CC3)cc2)cn1 | 521 | 622 | 514 |
| CC(=O)OCC(=O)[C@@]1(O)CC[C@H]2[C@@H]3CCC/4=C/C(=O)/C=C\[C@]4(C)[C@H]3[C@@H](O)C[C@]12C | 460 | 471 | 506 |
| COc1ccc(/C=C/C(=O)Nc2ccccc2C(=O)O)cc1OC | 439 | 517 | 496 |
| CN1C[C@@H]2c3ccccc3Oc3ccc(Cl)cc3[C@H]2C1 | 553 | 525 | 554 |
| OCCN1C[C@H](O)[C@@H](O)[C@H](O)[C@H]1CO | 519 | 540 | 489 |
| Oc1cc2c(cc1O)C1c3ccc(O)c(O)c3OCC1(O)C2 (configuration not stated) | 546 | 542 | 527 |
| CC1=CC=C2\N=C/3N(CC[C@@]3(O)C(=O)C2=C1)C4=CC=CC=C4 | 537 | 616 | 552 |
| CC1(C)O[C@@H]2C[C@H]3[C@@H]4C[C@H](F)\C5=C\C(=O)\C=C/[C@]5(C)[C@H]4[C@@H](O)C[C@]3(C)[C@@]2(O1)C(=O)CO | 515 | 622 | 588 |
| C[N]1C2=C(SC(=C2)[S+](C)[O-])C\3=C1C(=O)N(CC4=CC(=CC=C4)N)\N=C3 (configuration not stated) | 363 | 511 | 468 |
| N/C1=N/C(=O)C/2=C(NC[C@@H](CNC3=CC=C(C=C3)C(=O)N[C@@H](CCC([O-])=O)C([O-])=O)N2C=O)\N1 | 494 | 552 | 529 |
| C[C@]12CCC(=O)C(O)=C1CC[C@@H]1[C@@H]2CC[C@]2(C)C(=O)CC[C@@H]12 | 404 | 470 | 417 |
| CCC(CCCC)COC(=O)C(\C#N)=C(\c1ccccc1)c2ccccc2 (configuration not stated) | 540 | 667 | 583 |
| Nc1nc(N)c2nc(CNc3ccc(C(=O)NC(CCC(=O)O)C(=O)O)cc3)cnc2n1 (configuration not stated) | 458 | 543 | 515 |
| CC(C)(N[S+](=O)([O-])c1ccc2c(Cl)cnc(NC(=N)N)c2c1)C(=O)O | 527 | 609 | 570 |
| COc1cc2nccc(Oc3ccc(NC(=O)Nc4ccc(F)cc4F)c(F)c3)c2cc1OC | 548 | 623 | 515 |
| CN1CCN(C(=O)c2ccc(-c3ccc4c(C=O)c(O)ccc4c3)s2)CC1 | 499 | 612 | 556 |
| CCCCC(F)(F)[C@@]1(O)CC[C@H]2[C@@H](CC(=O)[C@@H]2CCCCCCC(=O)O)O1 | 494 | 599 | 541 |
| Nc1nc(-c2nn(Cc3ccccc3F)c3ncccc23)ncc1C1CC1 | 538 | 533 | 544 |
